Reference: patent publication EP0120304A2, “Substituted 4,10-dihydro-10-oxothieno benzoxepins and intermediates thereof, a process for their preparation and their use as medicaments” (HOECHST-ROUSSEL PHARMACEUTICALS INCORPORATED, priority 1983, dated 1984)
Read-outs that look alike come from different tables or passages of the source.

Tests used:
rat paw edema = experiment: carrageenin induced rat paw edema anti-inflammatory assay; type: in vivo; details: for ED50: Rattus norvegicus
[1] = system: 2-phenyl-1,4-benzoquinone-induced writhing; experiment: 2-phenyl-1,4-benzoquinone-induced writhing test (analgesia); type: in vivo, mice; details: for ED50: Mus musculus, po
From the text: Compounds of the present invention are also useful as analgesic agents due to their ability to alleviate pain in mammals.

For `CC(=O)OCCc1ccc2c(c1)C(=O)c1sccc1CO2` [2-(4,10-Dihydro-10-oxothieno[3,2-c][1]benzoxepin-8-yl) ethyl acetate], the “ED50 (mg/kg; 120 min.)” value (rat paw edema) was 11.4 mg/kg.
`CC(C)Cc1ccc(C(C)C(=O)O)cc1` (stereo not shown) [ibuprofen, reference compound] was tested, and the ED50 ([1]; orally, in a similar test, read-out: analgesic ED50) was 10.4 mg/kg.
For `COc1ccc2c(c1)c(CC(=O)O)c(C)n2C(=O)c1ccc(Cl)cc1` [indomethacin, reference compound], the ED50 (rat paw edema; po, read-out: anti-inflammatory ED50) was 6 mg/kg.
In the case of `O=C1c2cc(CCO)ccc2OCc2ccsc21` [(4,10-Dihydro-10-oxothieno[3,2-c][1]benzoxepin-8-yl) ethanol], the “ED50 (mg/kg; 120 min.)” value (rat paw edema) is reported as 34.2 mg/kg and the “ED50 (mg/kg; p.o.)” value ([1]; p.o., Phenylquinone Writhing) is reported as 19.7 mg/kg.
`CC(CO)c1ccc2c(c1)C(=O)c1sccc1CO2` (racemic) [(±)-2-(4,10-Dihydro-10-oxothieno[3,2-c][1]benzoxepin-8-yl)propanol] gave an ED50 (rat paw edema; 2 h, read-out: ED50 (mg/kg; 120 min.)) of 4.3 mg/kg and an ED50 ([1]; Phenylquinone Writhing, read-out: ED50 (mg/kg; p.o.)) of 4.3 mg/kg.
